Results reported in patent publication US20050080140A1, “Method for treating or preventing inflammatory disorders” (AnGes MG, Inc., priority 2003, published 2005).

What was measured:
[1] = test system: promoter region of the human IL-13 gene; experiment: IL-13 promoter-luciferase reporter assay; format: cell-based; conditions: 10 μM cPGI, 24 h
Text: Promoter sequences of human IL-13 gene containing PPRE and GATA elements were isolated from human leukocyte genomic DNA by polymerase chain reaction (PCR) with primers A (5′-[…]-3′ (SEQ ID NO: 3); sense) and D (5′-[…]-3′ (SEQ ID No: 4); antisense) for the 1.3 kbp fragment, and B (5′-[…]-3′ (SEQ ID NO: 5); sense) and D for the 0.4 kbp fragment. Each fragment was inserted into the MluI-XbaI site of pGL3-promoter vector (Promega, Madison, Wis.). Human vascular endothelial cells (1.2×10^4 cells/cm^2) were cotransfected with 0.2 μg of IL-13-luciferase reporter vector, 0.1 μg of β-galactosidase expression vector and 0.7 μg of expression vector for PPARδwt, PPARδdn, CREBwt, CREBdn or mock vector by use of TransIT LT-1. After 17 h of transfection, cells were incubated in fresh EGM-2 containing 2% FBS. After another 24 h, the cells were washed with PBS, and cultured in EGF-2 containing 2% FBS with 10 μM cPGI for 24 h to quantify luciferase and β-galactosidase activities as described previously (Hatae et al., J. Biol. Chem. (2001) 276: 46260-7). The luciferase activity of the extract was normalized to β-galactosidase activity.

[2] = test system: adhesion between human vascular endothelial cells and monocytic leukocyte U937 cells; experiment: Adherence assay of U937 cells to endothelial monolayers; format: cell-based; conditions: HUVEC
Experimental: HUVEC (2.5×10^4 cells/cm^2) were cultured in 12-well plates. After 24 h, confluent monolayers were used for adherence assays. Monolayers were preincubated in EGM-2 containing 2% FBS, 0 or 10 ng/ml TNF-α, 0 or 10 ng/ml IL-13 and 0 or 10 μM cPGI with or without anti-IL-13 monoclonal antibody (0.5 μg/ml) at 37° C. for 0 to 24 h. Human monocyte leukocyte U937 cells were cultured in RPMI 1640 (Gibco-Invitrogen) containing 10% FBS, 100 U/ml penicillin and […] streptomycin , labeled with 2.5 μM calcein-AM (Molecular Probes, Eugene, Oreg.) at room temperature for 45 min, washed and resuspended in serum-free EGM-2. The calcein-labeled U937 cells (8×10^4 cells/well) were added to pretreated endothelial cells and incubated with cPGI (0, 10 μM), recombinant IL-13 (0, 10 ng/ml) and anti-IL-13 monoclonal antibody (0, 0.5 μg/ml). U937 cells were allowed to adhere to pretreated endothelial cells for 30 min at 37° C. Adherence was assessed with a fluorescence image analyzer (FLA-2000; Fujifilm, Tokyo, Japan). Plates were scanned before and after washing for total and adherent cells, respectively, and relative adherence was calculated (fold of control).

[3] = 413 bp IL-13 promoter fragment, FIG. 3

- cPGI-dependent IL-13 promoter luciferase activity on coexpression of dominant negative CREB (CREBdn) [1, 3]: no effect
- cPGI-dependent increase of IL-13 promoter luciferase activity on cotransfection of dominant negative PPARδ (PPARδdn) [1, 3]: suppressed
- luciferase activity of reporter vector containing GATA sequences without PPREs ([1]; HUVEC, FIG. 2B): increased only weakly
- luciferase activity of reporter vectors containing the PPRE consensus region of the IL-13 promoter ([1]; HUVEC, FIG. 2B): significantly increase
- luciferase activity of vectors from which the PPRE consensus sequence region had been deleted ([1]; HUVEC, FIG. 2B): not increased
SMILES: CCCCC[C@H](O)/C=C/[C@@H]1[C@H]2C/C(=C/CCCC(=O)O)C[C@H]2C[C@H]1O [cPGI, carbaprostacyclin]
- TNF-α-induced monocytic leukocyte-endothelial cell adhesion ([2]; TNF-α 10 ng/ml plus antibody 0.5 μg/ml, cPGI 10 μM or IL-13 10 ng/ml, 24 h, FIG. 4D lanes 3-5): inhibited
- adhesion over time, TNF-α pretreatment in the presence of cPGI ([2]; TNF-α 10 ng/ml, cPGI 10 μM, 0 h to 24 h, FIG. 4E): dramatically inhibited
